Results reported in patent US20140023611A1 (priority 2010, published 2014).
Where a name gives a salt, the structure may show the parent alone. Marks after values point to notes of the source that are not given here.

Experiments:
[1] = tested on: NaPi2b; test: Competition with phosphate: Pi uptake assay repeated at 2.1 vs 0.1 mM phosphate; assay type: cell-based; conditions: potency at 2.1 vs 0.1 mM phosphate
Text: For example, a phosphate uptake assay can be performed and the IC50 values for a compound at different phosphate concentrations can be determined (e.g., “Enzyme kinetics”, I. Segel, 1975, John-Wiley & Sons, p. 123). IC50 values for non-competitive inhibitors will remain the same or similar with respect to the phosphate concentration, whereas IC50 values for competitive inhibitors will increase (i.e lose potency) as phosphate concentration increases.
To ascertain if an inhibitor was competitive for binding with phosphate, the procedure was repeated, but raising the concentration of the substrate in the assay mixture from 0.1 to 2.1 mM phosphate.

[2] = Fecal recovery of orally administered compounds; assay type: in vivo, Sprague-Dawley rats; conditions: Structure (I) examples, Table 16; rat, oral gavage, feces collected until 48 hr after dosing
Outline: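 After oral dosing, feces collected in metabolic cages up to 48 h, lyophilized and ground. Duplicate weighed portions per animal extracted with organic solvent under non-compound-optimized conditions, so recovery may be a minimal estimate.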

[3] = tested on: 5/6 nephrectomy (5/6Nx) rat model of CKD; test: In vivo evaluation procedure: CKD rats, drug in chow; conditions: for FGF23 (serum FGF23 levels): ELISA
Protocol: To assess the ability of selected example compounds to impact the progression of chronic kidney disease (CKD), 5/6 nephrectomy (5/6Nx) rat model of CKD was used. […] Upon arrival, the surgeries and extent of kidney damage in the animals were assessed by measuring serum creatinine, P, Ca, and BUN. Based on this analysis, rats with inconsistent kidney function were removed from the study and the remainder of the cohort was divided in to evenly stratified test groups. The remaining animals were then placed on the same synthetic diet used in the drug-in-chow studies (Example 350), except the P levels were adjusted to 0.9% P. Drugs are blended into this chow to achieve the required dosing rate. At this time, rats were also started on an activated Vitamin D regimen in which they were injected intraperitoneally with calcitriol at 80 ng/kg three times a week. Once a week, serum was collected via retro orbital bleeding for analysis of serum P and creatinine utilizing an ACE ALERA blood chemistry analyzer. […] Unless otherwise indicated, the data shown is from the serum collected at 2 weeks after initiation of the treatment regimen. In addition, for study #3, during the third week of the study, the animals were placed in metabolic cages for two days, and urine collected for the final 24 hours.

[4] = Study 3, 5/6Nx rats, data at 3 weeks

Row | Structure (SMILES) | % recovered in feces [2] | other results
1 | O=C(O)c1cccc(SCc2cccc(C(=O)Nc3ccc(N4CCCCC4)cc3-c3cc(C(=O)NCc4cccc(C(F)(F)F)c4)ccn3)c2)c1 [Example 8.1, 3-(3-(4-(piperidin-1-yl)-2-(4-(3-(trifluoromethyl)benzylcarbamoyl)pyridin-2-yl)phenylcarbamoyl)benzylthio)benzoic acid] | <20% | Competitive with respect to Pi? [1]: No
2 | O=C(NCc1cccc(C(F)(F)F)c1)c1ccnc(-c2cc(N3CCCCC3)ccc2NC(=O)c2cccc(CSc3ccc(C(=O)O)c(Br)c3)c2)c1 [Example 8.21] | >80% | –
3 | CN(CCN1CCOCC1)C(=O)c1cccc(C(=O)Nc2ccc(N3CCCCC3)cc2-c2cc(C(=O)NCc3cccc(C(F)(F)F)c3)ccn2)c1 [Example 80, N1-Methyl-N1-(2-morpholinoethyl)-N3-(4-(piperidin-1-yl)-2-(4-((3-(trifluoromethyl)benzyl)carbamoyl)pyridin-2-yl)phenyl)isophthalamide] | 20-80% | Competitive with respect to Pi? [1]: No
4 | CN(CCOCCOCCOCCC(=O)O)C(=O)Cc1cccc(SCc2cccc(C(=O)Nc3ccc(N4CCCCC4)cc3-c3cc(C(=O)NCc4cccc(C(F)(F)F)c4)ccn3)c2)c1 [Example 138] | <20% | –
5 | CCN(CC)c1ccc(NC(=O)c2cccc(CSCCOCCOCCOCCOCCOCCOCCOCCOCCC(=O)O)c2)c(-c2cc(C(=O)N[C@H]3CCCc4ccccc43)ccn2)c1 [Example 161, (S)-1-(3-(4-(diethylamino)-2-(4-(1,2,3,4-tetrahydronaphthalen-1-ylcarbamoyl)pyridin-2-yl)phenylcarbamoyl)phenyl)-5,8,11,14,17,20,23,26-octaoxa-2-thianonacosan-29-oic acid] | >80% | –
6 | CCN(CC)c1ccc(NC(=O)c2cccc(CSCCOCCOCCOCCOCCC(=O)O)c2)c(-c2cc(C(=O)NCc3cccc(C(F)(F)F)c3)ccn2)c1 [Example 162, 1-(3-(4-(diethylamino)-2-(4-(3-(trifluoromethyl)benzylcarbamoyl)pyridin-2-yl)phenylcarbamoyl)phenyl)-5,8,11,14-tetraoxa-2-thiaheptadecan-17-oic acid] | 20-80% | –
7 | CCN(CC)c1ccc(NC(=O)c2cccc(CSCCOCCOCCOCCOCCOCCOCCOCCOCCC(=O)O)c2)c(-c2cc(C(=O)NCc3cccc(C(F)(F)F)c3)ccn2)c1 [Example 166, 1-(3-(4-(diethylamino)-2-(4-(3-(trifluoromethyl)benzylcarbamoyl)pyridin-2-yl)phenylcarbamoyl)phenyl)-5,8,11,14,17,20,23,26-octaoxa-2-thianonacosan-29-oic acid] | >80% | Ser P (serum P) ([3]; Study 2, 5/6Nx rats, 0.9% P diet + calcitriol, 2 weeks): 11 mg/dL; Ser CRE (serum creatinine) ([3]; Study 2, 5/6Nx rats, 2 weeks): 1.2 mg/dL; FGF23 (serum FGF23 levels) ([3]; Study 2, 5/6Nx rats, 2 weeks): 100000 pg/mL; Ser CRE (serum creatinine) [3, 4]: 1.0^§ mg/dL; Ser P (serum P) [3, 4]: 10^§ mg/dL; FGF23 (serum FGF23 levels) ([3]; Study 3, 5/6Nx rats, data at 4 weeks): 1.2 × 10^5§§ pg/mL
8 | O=C(O)CCOCCOCCOCCNC(=O)c1cccc2c1ccn2Cc1cccc(C(=O)Nc2ccc(N3CCCCC3)cc2-c2cc(C(=O)N[C@H]3CCCc4ccccc43)ccn2)c1 [Example 181, (S)-1-oxo-1-(1-(3-(4-(piperidin-1-yl)-2-(4-(1,2,3,4-tetrahydronaphthalen-1-ylcarbamoyl)pyridin-2-yl)phenylcarbamoyl)benzyl)-1H-indol-4-yl)-5,8,11-trioxa-2-azatetradecan-14-oic acid] | >80% | –
9 | CCCN(CCC)c1ccc(NC(=O)c2cccc(COCCOCCOCCOCCOCCOCCOCCOCCOC)c2)c(-c2cc(C(=O)NCc3cccc(C(F)(F)F)c3)ccn2)c1 [Example 200, 2-(2-(3-(2,5,8,11,14,17,20,23,26-nonaoxaheptacosyl)benzamido)-5-(dipropylamino)phenyl)-N-(3-(trifluoromethyl)benzyl)isonicotinamide] | 20-80% | –

More lines, main results first:

Row | % recovered in feces [2] | Structure (SMILES) | other results
10 | >80% | CCN(CC)c1ccc(NC(=O)c2cccc(CCCOCCOCCOCCOCCC(=O)O)c2)c(-c2cc(C(=O)NCc3cccc(C(F)(F)F)c3)ccn2)c1 [Example 251, 16-(3-(4-(diethylamino)-2-(4-(3-(trifluoromethyl)benzylcarbamoyl)pyridin-2-yl)phenylcarbamoyl)phenyl)-4,7,10,13-tetraoxahexadecan-1-oic acid] | –
11 | <20% | CCN(CC)c1ccc(NC(=O)c2cccc(CCCOCCOCCOCCOCCOCCOCCOCCOCCOC)c2)c(-c2cc(C(=O)N[C@H]3CCCc4ccccc43)ccn2)c1 [Example 261, (S)-2-(2-(3-(2,5,8,11,14,17,20,23,26-nonaoxanonacosan-29-yl)benzamido)-5-(diethylamino)phenyl)-N-(1,2,3,4-tetrahydronaphthalen-1-yl)isonicotinamide] | Ser P (serum P) ([3]; Study 1, 5/6Nx rats, 0.9% P diet + calcitriol, 2 weeks): 9.7 mg/dL; Ser CRE (serum creatinine) ([3]; Study 1, 5/6Nx rats, 2 weeks): 1.0 mg/dL; FGF23 (serum FGF23 levels) ([3]; Study 1, 5/6Nx rats, 2 weeks): >15,000 pg/mL
12 | <20% | CCN(CC)c1ccc(NC(=O)c2cccc(CSCCOCCOCCOCCOCCOCCOCCOCCOC)c2)c(-c2cc(C(=O)NCc3cccc(C(F)(F)F)c3)ccn2)c1 [Example 265, 2-(2-(3-(2,5,8,11,14,17,20,23-octaoxa-26-thiaheptacosan-27-yl)benzamido)-5-(diethylamino)phenyl)-N-(3-(trifluoromethyl)benzyl)isonicotinamide] | –
13 | <20% | CCN(CC)c1ccc(NC(=O)c2cccc(CCCOCCOCCOCCOCCOCCOCCOCCOCCOC)c2)c(-c2cc(C(=O)NCc3cccc(C(F)(F)F)c3)ccn2)c1 [Example 269, 2-(2-(3-(2,5,8,11,14,17,20,23,26-nonaoxanonacosan-29-yl)benzamido)-5-(diethylamino)phenyl)-N-(3-(trifluoromethyl)benzyl)isonicotinamide] | –
14 | >80% | CCN(CC)c1ccc(NC(=O)c2cccc(CCCOCCOCCOCCOCCNS(=O)(=O)c3ccc(C(=O)N(CCOC)CCOCCOCCOCCOCCOCCOCCOC)cc3)c2)c(-c2cc(C(=O)NCc3cccc(C(F)(F)F)c3)ccn2)c1 [Example 272, 2-(2-(3-(1-(4-(2,5,8,11,14,17,20-heptaoxadocosan-22-yl(2-methoxyethyl)carbamoyl)phenylsulfonamido)-3,6,9,12-tetraoxapentadecan-15-yl)benzamido)-5-(diethylamino)phenyl)-N-(3-(trifluoromethyl)benzyl)isonicotinamide] | –
15 | <20% | CCN(CC)c1ccc(NC(=O)c2cccc(CSCCOCCOCCOCCOCCOCCOCCOCCOC)c2)c(-c2cc(C(=O)N[C@H]3CCCc4ccccc43)ccn2)c1 [Example 286, (S)-2-(2-(3-(2,5,8,11,14,17,20,23-octaoxa-26-thiaheptacosan-27-yl)benzamido)-5-(diethylamino)phenyl)-N-(1,2,3,4-tetrahydronaphthalen-1-yl)isonicotinamide] | –
16 | >80% | CCN(CC)c1ccc(NC(=O)c2cccc(CCCOCCOCCOCCOCCOCCOCCOCCOCCOCCC(=O)O)c2)c(-c2cc(C(=O)NCc3cccc(C(F)(F)F)c3)ccn2)c1 [Example 298, 31-(3-(4-(diethylamino)-2-(4-(3-(trifluoromethyl)benzylcarbamoyl)pyridin-2-yl)phenylcarbamoyl)phenyl)-4,7,10,13,16,19,22,25,28-nonaoxahentriacontan-1-oic acid] | –
17 | 20-80% | CCN(CC)c1ccc(NC(=O)c2cccc(CCCOCCOCCOCCOCCOCCOCCC(=O)O)c2)c(-c2cc(C(=O)NCc3cccc(C(F)(F)F)c3)ccn2)c1 [Example 299, 22-(3-(4-(diethylamino)-2-(4-(3-(trifluoromethyl)benzylcarbamoyl)pyridin-2-yl)phenylcarbamoyl)phenyl)-4,7,10,13,16,19-hexaoxadocosan-1-oic acid] | –
18 | 20-80% | CCN(CC)c1ccc(NC(=O)c2cccc(CCCOCCOCCOCCOCCOCCC(=O)O)c2)c(-c2cc(C(=O)NCc3cccc(C(F)(F)F)c3)ccn2)c1 [Example 300, 19-(3-(4-(diethylamino)-2-(4-(3-(trifluoromethyl)benzylcarbamoyl)pyridin-2-yl)phenylcarbamoyl)phenyl)-4,7,10,13,16-pentaoxanonadecan-1-oic acid] | –
19 | >80% | CCN(CC)c1ccc(NC(=O)c2cccc(C(=O)N(C)CCN(CCOC)CCOCCOCCOCCOCCOCCOCCOC)c2)c(-c2cc(C(=O)NCc3cccc(C(F)(F)F)c3)ccn2)c1 [Example 335, N^1-(4-(Diethylamino)-2-(4-(3-(trifluoromethyl)benzylcarbamoyl)pyridin-2-yl)phenyl)-N^3-(23-(2-methoxyethyl)-2,5,8,11,14,17,20-heptaoxa-23-azapentacosan-25-yl)-N^3-methylisophthalamide, trifluoroacetate] | –
